Experimental data taken from ChEMBL document CHEMBL1201862, “PubChem BioAssay data set” (2004).
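Dose response: 5 concentrations. Exposure: 48 h. Format: 96-well plates. Endpoint: linear interpolation; highest concentration if not reached. GI50 = concentration required for 50% inhibition of growth.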 The source made the active and inactive calls. Rule as the data show it: active = GI50 up to about 1.1 µM and inactive = higher.

Key:
Experiment in all cases: NCI anticancer screen, dose series, 48 h
[1] = system: ACHN
[2] = system: HCT-116
[3] = system: HL-60
[4] = system: Hs-578T
[5] = system: LOX IMVI
[6] = system: M14
[7] = system: Malme-3M
[8] = system: OVCAR-3
[9] = system: OVCAR-5
[10] = system: OVCAR-8
[11] = system: SK-MEL-28
[12] = system: SN12C
[13] = system: SNB-19
[14] = system: SNB-75
[15] = system: SR
[16] = system: T47D
[17] = system: TK-10
[18] = system: MDA-N
[19] = system: SK-OV-3

Measured: GI50

CC(=O)Oc1ccc2c(-c3ccccc3)c(Oc3ccc(Cl)cc3)c(=O)oc2c1
inactive: [1] 16.9 µM | [2] 14.9 µM | [3] 42.3 µM | [4] 20.1 µM | [5] 20.6 µM | [6] 19.8 µM | [7] 15.6 µM | [8] 14.5 µM | [9] 17.9 µM | [10] 18.5 µM | [11] 17.7 µM | [12] 24.1 µM | [13] 14.4 µM | [14] 7.45 µM | [15] 28.8 µM | [16] 6.21 µM | [17] 13.5 µM

CC12CC(c3ccccc3O1)C(C(=O)Nc1cccc(F)c1)C(=O)N2 (stereo not given)
inactive: [1] > 100 µM | [2] 91.2 µM | [3] 30.5 µM | [4] > 100 µM | [5] 49 µM | [6] 90.4 µM | [18] 54 µM | [7] > 100 µM | [8] 92 µM | [9] > 100 µM | [10] 24.4 µM | [11] 78.2 µM | [19] > 100 µM | [13] > 100 µM | [15] 38.7 µM | [16] 25.2 µM

Cc1ccc(/C=C2\CCS(=O)(=O)c3ccccc3C2=O)cc1
inactive: [1] 15.2 µM | [2] 13.1 µM | [3] 19.8 µM | [4] 37.4 µM | [5] 15.2 µM | [6] 26.1 µM | [18] 28 µM | [8] 17.2 µM | [9] 26.7 µM | [10] 13.9 µM | [11] 17.8 µM | [19] 21.7 µM | [12] 19.1 µM | [13] 16.1 µM | [14] 16.7 µM | [15] 10.6 µM | [16] 16.1 µM | [17] 16.6 µM

CCCCCCCCCC(=O)NCCc1c[nH]c2ccc(OC)cc12
inactive: [1] 16.7 µM | [2] 21.4 µM | [4] 20.1 µM | [5] 13.8 µM | [6] 17.9 µM | [18] 18.8 µM | [7] 18.2 µM | [8] 15.9 µM | [9] 23.9 µM | [10] 16.6 µM | [11] 17.9 µM | [19] 17.4 µM | [12] 17.4 µM | [13] 16.5 µM | [14] 20.6 µM | [15] 40.9 µM | [16] 19.7 µM | [17] 18.2 µM

C=CC(CCc1ccc(C(=O)OCC)cc1)c1c(N)nc(N)[nH]c1=O (stereo not given)
inactive: [2] > 100 µM | [3] 28.5 µM | [4] > 100 µM | [5] 45.3 µM | [6] > 100 µM | [18] 76.6 µM | [7] 89.9 µM | [8] 72.1 µM | [10] 95.1 µM | [11] > 100 µM | [19] > 100 µM | [12] > 100 µM | [13] > 100 µM | [14] 47.8 µM | [15] > 100 µM | [16] 72.4 µM | [17] 60.3 µM

CCc1c(N=[N+]=[N-])c2ccccc2oc1=O
inactive: [1] > 100 µM | [2] > 100 µM | [3] > 100 µM | [4] 49.8 µM | [5] > 100 µM | [6] > 100 µM | [18] > 100 µM | [7] > 100 µM | [8] > 100 µM | [10] > 100 µM | [11] > 100 µM | [19] > 100 µM | [12] > 100 µM | [14] 69.3 µM | [15] > 100 µM | [16] > 100 µM | [17] > 100 µM

O=C(NCCNCCO)N/N=C/c1ccc(Cl)cc1
inactive: [1] > 100 µM | [2] > 100 µM | [3] > 100 µM | [4] > 100 µM | [6] > 100 µM | [18] > 100 µM | [7] > 100 µM | [8] > 100 µM | [9] > 100 µM | [10] > 100 µM | [11] > 100 µM | [19] > 100 µM | [12] > 100 µM | [13] > 100 µM | [14] 36.1 µM | [15] > 100 µM | [16] > 100 µM | [17] > 100 µM

C=C1CC[C@@H]2[C@](C)(COC(=O)CCC(=O)OC)CCC[C@@]2(C)[C@@H]1CCC1=CC(=O)OC1
inactive: [1] > 100 µM | [2] 59.8 µM | [3] 20.3 µM | [4] 77.6 µM | [5] 55.3 µM | [6] > 100 µM | [18] 56 µM | [7] > 100 µM | [8] 61.4 µM | [9] > 100 µM | [10] 63 µM | [11] > 100 µM | [19] > 100 µM | [12] > 100 µM | [13] > 100 µM | [15] 21.5 µM | [16] 29.2 µM | [17] > 100 µM

CC1(C)C2CCC(=O)C1CC2 (stereo not given)
inactive: [1] > 100 µM | [2] > 100 µM | [3] > 100 µM | [4] > 100 µM | [5] > 100 µM | [6] > 100 µM | [18] > 100 µM | [7] > 100 µM | [8] > 100 µM | [9] > 100 µM | [10] > 100 µM | [11] > 100 µM | [19] > 100 µM | [12] > 100 µM | [13] > 100 µM | [14] > 100 µM | [16] > 100 µM | [17] > 100 µM

Clc1sc(Cl)c2c1[C@@H](Cl)C[C@@H]2Br
inactive: [1] > 100 µM | [2] > 100 µM | [4] 65.8 µM | [5] 33.8 µM | [6] > 100 µM | [18] 84.3 µM | [7] 22.8 µM | [9] > 100 µM | [10] > 100 µM | [11] > 100 µM | [19] > 100 µM | [12] > 100 µM | [13] > 100 µM | [14] > 100 µM | [15] 18.8 µM | [16] 44.7 µM | [17] > 100 µM

COc1ccc(-c2c(/C=N/OCC(=O)O)c3sc4ccccc4n3c2/C=N/OCC(=O)O)cc1
inactive: [1] > 50 µM | [2] > 50 µM | [4] > 50 µM | [5] > 50 µM | [6] > 50 µM | [18] > 50 µM | [7] > 50 µM | [8] > 50 µM | [9] > 50 µM | [10] > 50 µM | [11] > 50 µM | [19] > 50 µM | [12] > 50 µM | [13] > 50 µM | [14] > 50 µM | [16] > 50 µM | [17] > 50 µM

NC(=S)N/N=C1\CCCC1C(O)(C(F)(F)Cl)C(F)(F)Cl (stereo not given)
inactive: [1] > 10 µM | [2] > 10 µM | [4] > 10 µM | [5] > 10 µM | [6] > 10 µM | [7] > 10 µM | [8] > 10 µM | [9] > 10 µM | [10] > 10 µM | [11] > 10 µM | [19] > 10 µM | [12] > 10 µM | [13] > 10 µM | [14] > 10 µM | [15] > 10 µM | [16] > 10 µM | [17] > 10 µM

COc1ccc(NC(=O)CC(=O)N2N=C(c3ccccc3)C(/N=N/c3ccc(S(=O)(=O)CCOS(=O)(=O)O)cc3)C2=O)cc1 (stereo not given)
inactive: [1] > 100 µM | [2] > 100 µM | [3] > 100 µM | [4] > 100 µM | [5] > 100 µM | [6] > 100 µM | [18] > 100 µM | [7] > 100 µM | [8] > 100 µM | [10] > 100 µM | [11] > 100 µM | [19] > 100 µM | [12] > 100 µM | [13] > 100 µM | [14] > 100 µM | [15] > 100 µM | [16] > 100 µM | [17] > 100 µM

Cn1c(CCC2(C)Cc3ccccc3C(=O)O2)cc2ccccc2c1=O (stereo not given)
inactive: [3] 27.2 µM | [4] 37.7 µM | [6] 16.4 µM | [18] 22.6 µM | [7] 35.2 µM | [8] 21 µM | [9] 32.8 µM | [10] > 100 µM | [11] 28.8 µM | [19] 30.5 µM | [12] 44 µM | [13] 55.6 µM | [14] 22.4 µM | [15] 34.4 µM | [16] 24.3 µM

Clc1n[nH]c2ccccc12
inactive: [1] > 100 µM | [2] > 100 µM | [3] > 100 µM | [4] > 100 µM | [6] > 100 µM | [18] > 100 µM | [7] > 100 µM | [8] > 100 µM | [9] > 100 µM | [10] > 100 µM | [11] > 100 µM | [19] > 100 µM | [12] > 100 µM | [13] > 100 µM | [14] > 100 µM | [16] > 100 µM | [17] > 100 µM

O=C(CC(C(=O)c1cccs1)c1ccsc1)c1ccc(Cl)s1 (stereo not given)
inactive: [1] 96.2 µM | [2] 47.5 µM | [3] 75.2 µM | [4] 60.1 µM | [5] > 100 µM | [6] 85.5 µM | [7] > 100 µM | [9] 31.4 µM | [10] > 100 µM | [11] > 100 µM | [19] > 100 µM | [12] > 100 µM | [13] 72.3 µM | [14] > 100 µM | [15] 39.2 µM | [16] 44.3 µM | [17] > 100 µM
